Source: paper PMC9457168 (Proceedings of the National Academy of Sciences of the …, 2022)

Assays:
TPMV = experiment: microbe, parasite or virus in culture; type: cell-based; conditions: Thottapalayam virus, HEK-293T, read-out: EC50 (nM) Mean (SD) TPMV
LCMV = experiment: microbe, parasite or virus in culture; type: cell-based, lymphocytic choriomeningitis virus; conditions: Mammarenavirus choriomeningitidis, KB, read-out: EC50 (nM) Mean (SD) LCMV
LCMV WE strain = conditions: mouse, in vivo
LCMV Armstrong strain = type: cell-based, lymphocytic choriomeningitis virus
LCMV nucleoprotein = type: cell-based, lymphocytic choriomeningitis virus

SMILES	EC50 (TPMV) [nM]	EC50 (LCMV) [nM]	survival rate (LCMV WE strain) [%]	inflammatory foci in liver (pathology) (LCMV WE strain; 30 mg/kg)	serum IFN-γ levels (LCMV WE strain; 30 mg/kg)	serum TNF-α levels (LCMV WE strain; 30 mg/kg)	viral antigen in liver (IHC) (LCMV WE strain; 30 mg/kg)	infectious viral particles in culture supernatants, pretreatment (LCMV Armstrong strain)	viral propagation, posttreatment (LCMV Armstrong strain)	viral titers in supernatants, pretreatment (LCMV Armstrong strain)	LCMV nucleoprotein production (immunofluorescence) (LCMV nucleoprotein)
O=C1c2c(O)c(=O)ccn2N([C@@H]2c3ccccc3SCc3c2ccc(F)c3F)[C@@H]2COCCN12 [BXA, baloxavir acid]	> 1000	> 1000	–	–	–	–	–	–	–	–	–
NC(=O)c1ncn([C@@H]2O[C@H](CO)[C@@H](O)[C@H]2O)n1 [RBV, Ribavirin]	–	–	20	inflammatory foci were observed	equivalent level to the vehicle-treated mice	higher than that in compound B–treated mice	viral antigens were detected in hepatocytes	decreased infectious viral particles	significantly reduced viral propagation	increased	inhibited only at 1,000 nM
